≈ marks a conversion by molar mass, not a printed value.
Experiments:
IKKALPHA = biological target: T1, IKKALPHA (Homo sapiens, UniProt O15111); assay: Kinase panel (Millipore); type: biochemical; conditions: 1 µM, ATP at Km
T1 construct: purchased Millipore (KinaseProfiler) kinase panel

N muscle-type (h) = N muscle-type (h) (Homo sapiens, UniProt P02708+P07510+Q07001); assay: biochemical; conditions: read-out: % Inhibition of Control Specific Binding
IRAK1 = IRAK1 (Homo sapiens, UniProt P51617); assay: Kinase panel (Millipore); type: biochemical; conditions: 1 µM, ATP at Km
TNF-alpha (h) = conditions: 10 µM, agonist radioligand
beta 3 (h) = biological target: T2, beta 3 (h) (Homo sapiens, UniProt P13945); assay: CEREP binding assay; conditions: antagonist radioligand, read-out: % Inhibition of Control Specific Binding
T2 construct: purchased Millipore (KinaseProfiler) kinase panel

[1] = 120 min, pH 7.4
EGFR(L861Q) = EGFR(L861Q) (Homo sapiens, UniProt P00533, L861Q); conditions: 1 µM, ATP at Km
cMET (Y1248D) = cMET (Y1248D) (Homo sapiens, UniProt P08581, Y1230D); conditions: 1 µM, ATP at Km
FES = FES (Homo sapiens, UniProt P07332); assay: Kinase panel (Millipore); type: biochemical; conditions: 1 µM, ATP at Km
IR = biological target: T3, IR (Homo sapiens, UniProt P06213); assay: Kinase panel (Millipore); type: biochemical; conditions: 1 µM, ATP at Km
T3 construct: purchased Millipore (KinaseProfiler) kinase panel

PKG1BETA = biological target: T4, PKG1BETA (Homo sapiens, UniProt Q13976); assay: Kinase panel (Millipore); type: biochemical; conditions: 1 µM, ATP at Km
T4 construct: purchased Millipore (KinaseProfiler) kinase panel

PRK2 = biological target: T5, PRK2 (Homo sapiens, UniProt Q16513); assay: Kinase panel (Millipore); type: biochemical; conditions: 1 µM, ATP at Km
T5 construct: purchased Millipore (KinaseProfiler) kinase panel

NEK3 = biological target: T6, NEK3 (Homo sapiens, UniProt P51956); assay: Kinase panel (Millipore); type: biochemical; conditions: 1 µM, ATP at Km
T6 construct: purchased Millipore (KinaseProfiler) kinase panel

PKCALPHA = PKCALPHA (Homo sapiens, UniProt P17252); assay: Kinase panel (Millipore); type: biochemical; conditions: 1 µM, ATP at Km
CDK5/P35 = CDK5/P35 (Homo sapiens, UniProt Q00535); conditions: 1 µM, ATP at Km
EEF-2K = EEF-2K (Homo sapiens, UniProt O00418); assay: Kinase panel (Millipore); type: biochemical; conditions: 1 µM, ATP at Km
ABL(Y253F) = ABL(Y253F) (Homo sapiens, UniProt P00519, Y253F); conditions: 1 µM, ATP at Km
PKCBETAI = PKCBETAI (Homo sapiens, UniProt P05771); assay: Kinase panel (Millipore); type: biochemical; conditions: 1 µM, ATP at Km
TSSK1 = biological target: T7, TSSK1 (Homo sapiens, UniProt Q9BXA7); assay: Kinase panel (Millipore); type: biochemical; conditions: 1 µM, ATP at Km
T7 construct: purchased Millipore (KinaseProfiler) kinase panel

SRC(T341M) = SRC(T341M) (Homo sapiens, UniProt P12931, T341M); conditions: 1 µM, ATP at Km
EPHA8 = biological target: T8, EPHA8 (Homo sapiens, UniProt P29322); assay: Kinase panel (Millipore); type: biochemical; conditions: 1 µM, ATP at Km
T8 construct: purchased Millipore (KinaseProfiler) kinase panel

EPHA7 = biological target: T9, EPHA7 (Homo sapiens, UniProt Q15375); assay: Kinase panel (Millipore); type: biochemical; conditions: 1 µM, ATP at Km
T9 construct: purchased Millipore (KinaseProfiler) kinase panel

GRK6 = biological target: T10, GRK6 (Homo sapiens, UniProt P43250); assay: Kinase panel (Millipore); type: biochemical; conditions: 1 µM, ATP at Km
T10 construct: purchased Millipore (KinaseProfiler) kinase panel

ABL (M351T) = ABL (M351T) (Homo sapiens, UniProt P00519, M351T); conditions: 1 µM, ATP at Km
TXK = biological target: T11, TXK (Homo sapiens, UniProt P42681); assay: Kinase panel (Millipore); type: biochemical; conditions: 1 µM, ATP at Km
T11 construct: purchased Millipore (KinaseProfiler) kinase panel

[…](D842V) = […](D842V) (Homo sapiens, UniProt P16234, D842V); conditions: 1 µM, ATP at Km
CDK3/CYCLINE = CDK3/CYCLINE (Homo sapiens, UniProt Q00526); conditions: 1 µM, ATP at Km
EPHB1 = biological target: T12, EPHB1 (Homo sapiens, UniProt P54762); assay: Kinase panel (Millipore); type: biochemical; conditions: 1 µM, ATP at Km
T12 construct: purchased Millipore (KinaseProfiler) kinase panel

FGFR2 = FGFR2 (Homo sapiens, UniProt P21802); assay: Kinase panel (Millipore); type: biochemical; conditions: 1 µM, ATP at Km
PKD2 = biological target: T13, PKD2 (Homo sapiens, UniProt Q9BZL6); assay: Kinase panel (Millipore); type: biochemical; conditions: 1 µM, ATP at Km
T13 construct: purchased Millipore (KinaseProfiler) kinase panel

RIPK2 = RIPK2 (Homo sapiens, UniProt O43353); assay: Kinase panel (Millipore); type: biochemical; conditions: 1 µM, ATP at Km
DCAMKL2 = biological target: T14, DCAMKL2 (Homo sapiens, UniProt Q8N568); assay: Kinase panel (Millipore); type: biochemical; conditions: 1 µM, ATP at Km
T14 construct: purchased Millipore (KinaseProfiler) kinase panel

RET = biological target: T15, RET (Homo sapiens, UniProt P07949); assay: Kinase panel (Millipore); type: biochemical; conditions: 1 µM, ATP at Km
T15 construct: purchased Millipore (KinaseProfiler) kinase panel

BLT1 (LTB4) (h) = biological target: T16, BLT1 (LTB4) (h) (Homo sapiens, UniProt Q15722); assay: CEREP binding assay; conditions: agonist radioligand, read-out: % Inhibition of Control Specific Binding
T16 construct: purchased Millipore (KinaseProfiler) kinase panel

PKBBETA = PKBBETA (Homo sapiens, UniProt P31751); assay: Kinase panel (Millipore); type: biochemical; conditions: 1 µM, ATP at Km
DMPK = DMPK (Homo sapiens, UniProt Q09013); assay: Kinase panel (Millipore); type: biochemical; conditions: 1 µM, ATP at Km
RET(V804M) = RET(V804M) (Homo sapiens, UniProt P07949, V804M); conditions: 1 µM, ATP at Km
RY3 (ryanodine) = conditions: 10 µM, agonist radioligand
cMET (D1246N) = cMET (D1246N) (Homo sapiens, UniProt P08581, D1228N); conditions: 1 µM, ATP at Km
V2 (h) = biological target: T17, V2 (h) (Homo sapiens, UniProt P30518); assay: CEREP binding assay; conditions: agonist radioligand, read-out: % Inhibition of Control Specific Binding
T17 construct: CEREP

Sequence of […](D842V) (P16234 24-1089 D842V): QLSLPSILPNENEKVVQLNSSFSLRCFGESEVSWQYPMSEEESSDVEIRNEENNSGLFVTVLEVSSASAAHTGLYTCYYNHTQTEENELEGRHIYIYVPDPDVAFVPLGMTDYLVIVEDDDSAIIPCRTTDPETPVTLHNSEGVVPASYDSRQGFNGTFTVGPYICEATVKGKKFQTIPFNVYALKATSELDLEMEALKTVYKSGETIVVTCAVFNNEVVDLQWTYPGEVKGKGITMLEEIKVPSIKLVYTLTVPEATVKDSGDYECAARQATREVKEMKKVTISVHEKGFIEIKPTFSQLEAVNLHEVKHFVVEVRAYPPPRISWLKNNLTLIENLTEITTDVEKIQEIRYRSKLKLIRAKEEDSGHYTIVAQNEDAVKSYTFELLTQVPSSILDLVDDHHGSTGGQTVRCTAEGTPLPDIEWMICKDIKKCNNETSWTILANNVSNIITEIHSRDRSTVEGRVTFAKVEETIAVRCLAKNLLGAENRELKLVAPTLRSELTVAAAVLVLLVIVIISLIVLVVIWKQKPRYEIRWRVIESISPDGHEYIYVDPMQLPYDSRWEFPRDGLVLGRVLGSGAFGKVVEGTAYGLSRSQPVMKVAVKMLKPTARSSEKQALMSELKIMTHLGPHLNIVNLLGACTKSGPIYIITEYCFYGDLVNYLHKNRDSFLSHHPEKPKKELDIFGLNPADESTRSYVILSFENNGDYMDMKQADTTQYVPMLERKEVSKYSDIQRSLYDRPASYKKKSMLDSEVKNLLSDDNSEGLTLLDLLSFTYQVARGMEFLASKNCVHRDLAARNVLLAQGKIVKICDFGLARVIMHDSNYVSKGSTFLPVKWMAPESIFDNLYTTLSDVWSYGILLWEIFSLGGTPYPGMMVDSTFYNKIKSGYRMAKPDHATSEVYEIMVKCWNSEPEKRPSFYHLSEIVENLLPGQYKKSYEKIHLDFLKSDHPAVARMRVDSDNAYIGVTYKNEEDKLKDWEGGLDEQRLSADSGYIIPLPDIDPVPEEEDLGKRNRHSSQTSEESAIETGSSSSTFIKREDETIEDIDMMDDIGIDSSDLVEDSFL
T12 sequence (P54762 18-984): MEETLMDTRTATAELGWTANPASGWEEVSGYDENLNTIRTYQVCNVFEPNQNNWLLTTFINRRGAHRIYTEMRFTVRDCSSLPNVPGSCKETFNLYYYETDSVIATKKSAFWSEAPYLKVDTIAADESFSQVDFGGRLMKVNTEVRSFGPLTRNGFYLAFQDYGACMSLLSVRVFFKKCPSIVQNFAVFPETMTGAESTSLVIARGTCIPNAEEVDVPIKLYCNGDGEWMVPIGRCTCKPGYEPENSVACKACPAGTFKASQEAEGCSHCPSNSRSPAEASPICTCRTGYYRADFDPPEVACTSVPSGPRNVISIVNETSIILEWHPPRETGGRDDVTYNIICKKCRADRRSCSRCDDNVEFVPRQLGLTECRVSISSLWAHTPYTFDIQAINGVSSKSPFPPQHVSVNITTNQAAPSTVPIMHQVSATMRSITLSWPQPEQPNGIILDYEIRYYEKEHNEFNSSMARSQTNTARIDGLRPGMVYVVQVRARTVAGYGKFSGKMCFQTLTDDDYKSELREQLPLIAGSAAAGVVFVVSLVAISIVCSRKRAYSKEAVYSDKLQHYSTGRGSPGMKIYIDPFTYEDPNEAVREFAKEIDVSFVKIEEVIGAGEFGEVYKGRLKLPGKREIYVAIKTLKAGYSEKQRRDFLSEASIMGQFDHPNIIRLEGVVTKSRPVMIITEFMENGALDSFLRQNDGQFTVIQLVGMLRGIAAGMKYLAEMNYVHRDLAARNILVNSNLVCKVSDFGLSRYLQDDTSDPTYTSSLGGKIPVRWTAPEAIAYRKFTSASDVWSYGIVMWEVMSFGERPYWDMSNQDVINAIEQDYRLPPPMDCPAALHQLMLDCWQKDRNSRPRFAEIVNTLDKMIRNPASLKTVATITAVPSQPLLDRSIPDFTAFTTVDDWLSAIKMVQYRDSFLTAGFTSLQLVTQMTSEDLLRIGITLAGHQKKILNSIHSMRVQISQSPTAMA
Sequence of EEF-2K (O00418 whole entry): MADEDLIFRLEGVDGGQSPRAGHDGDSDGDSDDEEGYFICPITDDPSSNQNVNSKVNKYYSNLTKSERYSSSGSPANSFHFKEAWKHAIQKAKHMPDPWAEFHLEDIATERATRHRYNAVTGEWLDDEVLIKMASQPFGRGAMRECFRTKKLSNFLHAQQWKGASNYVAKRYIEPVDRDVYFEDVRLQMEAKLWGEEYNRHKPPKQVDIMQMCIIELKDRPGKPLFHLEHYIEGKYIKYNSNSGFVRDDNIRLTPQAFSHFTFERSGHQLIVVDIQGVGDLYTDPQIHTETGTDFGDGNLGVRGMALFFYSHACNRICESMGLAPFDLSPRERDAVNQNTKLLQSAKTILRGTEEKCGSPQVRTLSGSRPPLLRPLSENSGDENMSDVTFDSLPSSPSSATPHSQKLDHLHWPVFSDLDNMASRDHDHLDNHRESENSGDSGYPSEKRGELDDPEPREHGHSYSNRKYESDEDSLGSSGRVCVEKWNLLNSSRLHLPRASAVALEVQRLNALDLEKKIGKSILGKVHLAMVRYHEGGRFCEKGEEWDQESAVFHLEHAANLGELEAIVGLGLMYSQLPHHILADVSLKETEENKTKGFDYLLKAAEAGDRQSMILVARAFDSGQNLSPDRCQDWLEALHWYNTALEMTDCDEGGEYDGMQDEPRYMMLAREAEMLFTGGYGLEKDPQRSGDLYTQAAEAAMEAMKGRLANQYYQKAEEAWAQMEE
Sequence of FGFR2 (P21802 22-821): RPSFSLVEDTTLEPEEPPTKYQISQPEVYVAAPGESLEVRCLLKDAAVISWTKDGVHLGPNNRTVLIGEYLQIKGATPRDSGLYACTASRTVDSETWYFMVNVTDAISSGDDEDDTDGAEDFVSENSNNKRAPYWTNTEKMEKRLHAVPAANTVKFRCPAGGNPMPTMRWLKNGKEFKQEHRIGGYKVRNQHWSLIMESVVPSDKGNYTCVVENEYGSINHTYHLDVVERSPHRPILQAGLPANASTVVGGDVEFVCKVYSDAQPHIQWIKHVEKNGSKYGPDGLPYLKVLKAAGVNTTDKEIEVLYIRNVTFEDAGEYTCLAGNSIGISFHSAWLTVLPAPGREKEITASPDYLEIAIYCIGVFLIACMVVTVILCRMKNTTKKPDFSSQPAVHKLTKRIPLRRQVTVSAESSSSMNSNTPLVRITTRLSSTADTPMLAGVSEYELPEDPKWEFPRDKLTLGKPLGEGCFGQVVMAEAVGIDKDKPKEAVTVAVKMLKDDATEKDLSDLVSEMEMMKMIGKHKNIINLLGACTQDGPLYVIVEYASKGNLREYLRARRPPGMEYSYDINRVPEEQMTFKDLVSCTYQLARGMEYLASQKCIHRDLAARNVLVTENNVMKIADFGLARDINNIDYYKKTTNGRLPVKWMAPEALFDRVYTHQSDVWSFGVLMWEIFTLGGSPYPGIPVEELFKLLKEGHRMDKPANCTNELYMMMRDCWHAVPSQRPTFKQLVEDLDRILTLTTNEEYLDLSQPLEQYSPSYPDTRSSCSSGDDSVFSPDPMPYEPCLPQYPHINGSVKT
T13 sequence (Q9BZL6 whole entry): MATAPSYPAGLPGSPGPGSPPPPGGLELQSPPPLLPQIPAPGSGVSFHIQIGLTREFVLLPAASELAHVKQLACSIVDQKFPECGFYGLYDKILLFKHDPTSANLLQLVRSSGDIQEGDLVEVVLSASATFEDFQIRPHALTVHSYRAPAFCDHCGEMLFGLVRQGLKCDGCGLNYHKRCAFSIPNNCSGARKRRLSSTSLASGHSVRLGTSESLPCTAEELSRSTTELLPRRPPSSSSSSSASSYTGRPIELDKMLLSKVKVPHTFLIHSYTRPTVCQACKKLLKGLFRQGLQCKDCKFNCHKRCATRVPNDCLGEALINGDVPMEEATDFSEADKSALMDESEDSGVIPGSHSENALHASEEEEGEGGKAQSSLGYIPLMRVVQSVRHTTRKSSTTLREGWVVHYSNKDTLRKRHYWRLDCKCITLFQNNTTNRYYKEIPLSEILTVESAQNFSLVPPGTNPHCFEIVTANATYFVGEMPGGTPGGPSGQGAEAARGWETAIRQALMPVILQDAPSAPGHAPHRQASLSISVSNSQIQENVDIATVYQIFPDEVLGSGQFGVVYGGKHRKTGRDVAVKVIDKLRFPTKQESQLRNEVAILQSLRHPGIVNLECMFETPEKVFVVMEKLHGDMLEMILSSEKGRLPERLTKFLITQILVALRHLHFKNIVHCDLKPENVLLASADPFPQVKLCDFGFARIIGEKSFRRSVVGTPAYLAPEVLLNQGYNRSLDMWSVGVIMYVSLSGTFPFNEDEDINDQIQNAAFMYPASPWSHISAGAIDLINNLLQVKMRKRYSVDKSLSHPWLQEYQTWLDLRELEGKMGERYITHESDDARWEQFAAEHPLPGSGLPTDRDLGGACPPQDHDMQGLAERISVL
T16 sequence (Q15722 whole entry): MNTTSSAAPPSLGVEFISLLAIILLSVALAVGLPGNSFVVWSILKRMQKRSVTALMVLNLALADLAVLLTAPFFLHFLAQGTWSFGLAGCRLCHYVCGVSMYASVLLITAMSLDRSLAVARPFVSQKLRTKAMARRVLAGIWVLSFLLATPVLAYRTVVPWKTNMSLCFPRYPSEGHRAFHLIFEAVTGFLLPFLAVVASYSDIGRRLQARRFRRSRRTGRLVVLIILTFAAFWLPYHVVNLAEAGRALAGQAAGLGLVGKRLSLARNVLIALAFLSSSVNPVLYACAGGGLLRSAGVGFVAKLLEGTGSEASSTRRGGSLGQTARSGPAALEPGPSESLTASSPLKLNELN

Compound: Cn1ncc2cc(-c3cnc(N)c(Cl)c3N3CCC4(CCNC4=O)CC3)ccc21 [Compound 109, 8-(2-Amino-3-chloro-5-(1-methyl-1H-indazol-5-yl)pyridin-4-yl)-2,8-diazaspiro[4.5]decan-1-one]
- % effect (IKKALPHA): -17%
- inhibition at 10 µM (N muscle-type (h)): 11%
- % effect (IRAK1): 15%
- % Inhibition of Control Specific Binding (TNF-alpha (h)): -8%
- inhibition at 10 µM (beta 3 (h)): -16%
- Solubility Kinetic [1]: 137 µM (≈ 56.3 µg/mL)
- % effect (EGFR(L861Q)): 11%
- % effect (cMET (Y1248D)): -1%
- % effect (FES): -6%
- % effect (IR): -5%
- % effect (PKG1BETA): -7%
- % effect (PRK2): 1%
- % effect (NEK3): -11%
- % effect (PKCALPHA): 5%
- % effect (CDK5/P35): 1%
- % effect (EEF-2K): -6%
- Cl (human): ∼0.36 L/h/kg
- F (human): ∼70%
- Vd (human): ∼1.4 L/kg
- clearance prediction, allometry with correction by fu and BrW (human): 5.72 mL/min/kg
- clearance prediction, allometry with correction by fu and MLP (human): 8.52 mL/min/kg
- clearance prediction, iviv from hepatocytes (human): 3.58 mL/min/kg
- volume prediction, range of allometry methods (human): 1.3 to 1.5 L/kg
- t1/2 (human prediction): ∼2.7 h
- % effect (ABL(Y253F)): 1%
- % effect (PKCBETAI): -4%
- % effect (TSSK1): -7%
- % effect (SRC(T341M)): -8%
- % effect (EPHA8): -9%
- % effect (EPHA7): 13%
- % effect (GRK6): 5%
- % effect (ABL (M351T)): -11%
- % effect (TXK): -5%
- % effect ([…](D842V)): -10%
- % effect (CDK3/CYCLINE): 6%
- % effect (EPHB1): 3%
- % effect (FGFR2): 4%
- % effect (PKD2): -1%
- % effect (RIPK2): 1%
- % effect (DCAMKL2): -3%
- % effect (RET): 7%
- inhibition at 10 µM (BLT1 (LTB4) (h)): 16%
- % effect (PKBBETA): -21%
- % effect (DMPK): 4%
- % effect (RET(V804M)): 6%
- % Inhibition of Control Specific Binding (RY3 (ryanodine)): 1%
- % effect (cMET (D1246N)): -2%
- inhibition at 10 µM (V2 (h)): 2%

Reference: paper PMC5362750, “Discovery of Potent, Selective, and Orally Bioavailable Small-Molecule Modulators of the Mediator Complex-Associated Kinases CDK8 and CDK19” (Journal of Medicinal Chemistry, 2016)
